Reference: PMC11873939, “Target Identification with Live-Cell Photoaffinity Labeling and Mechanism of Action Elucidation of ARN23765, a Highly Potent CFTR Corrector” (Journal of Medicinal Chemistry, 2025)

Experiments:
[1] = molecular target: T1, F508del-CFTR double mutants (K68I, N71I, R74A, F81A, A198Y, W361A, S364F) (Homo sapiens, UniProt P13569, DEL508-508/F81A); experiment: Protein maturation assay (WB) of F508del-CFTR double mutants in transfected HEK293 cells; format: cell-based; conditions: F508del/F81A-CFTR; HEK293, 10 nM, 24 h
T1 construct: CFTR identification in pull-down studies and analysis of full-length CFTR in protein maturation assays; expressed in transfected cells; host or cells: HEK293 (transient, pCDNA3.1 constructs, JetPEI)
T1 sequence (P13569 with tags, fused parts or gaps F81A/DEL508-508): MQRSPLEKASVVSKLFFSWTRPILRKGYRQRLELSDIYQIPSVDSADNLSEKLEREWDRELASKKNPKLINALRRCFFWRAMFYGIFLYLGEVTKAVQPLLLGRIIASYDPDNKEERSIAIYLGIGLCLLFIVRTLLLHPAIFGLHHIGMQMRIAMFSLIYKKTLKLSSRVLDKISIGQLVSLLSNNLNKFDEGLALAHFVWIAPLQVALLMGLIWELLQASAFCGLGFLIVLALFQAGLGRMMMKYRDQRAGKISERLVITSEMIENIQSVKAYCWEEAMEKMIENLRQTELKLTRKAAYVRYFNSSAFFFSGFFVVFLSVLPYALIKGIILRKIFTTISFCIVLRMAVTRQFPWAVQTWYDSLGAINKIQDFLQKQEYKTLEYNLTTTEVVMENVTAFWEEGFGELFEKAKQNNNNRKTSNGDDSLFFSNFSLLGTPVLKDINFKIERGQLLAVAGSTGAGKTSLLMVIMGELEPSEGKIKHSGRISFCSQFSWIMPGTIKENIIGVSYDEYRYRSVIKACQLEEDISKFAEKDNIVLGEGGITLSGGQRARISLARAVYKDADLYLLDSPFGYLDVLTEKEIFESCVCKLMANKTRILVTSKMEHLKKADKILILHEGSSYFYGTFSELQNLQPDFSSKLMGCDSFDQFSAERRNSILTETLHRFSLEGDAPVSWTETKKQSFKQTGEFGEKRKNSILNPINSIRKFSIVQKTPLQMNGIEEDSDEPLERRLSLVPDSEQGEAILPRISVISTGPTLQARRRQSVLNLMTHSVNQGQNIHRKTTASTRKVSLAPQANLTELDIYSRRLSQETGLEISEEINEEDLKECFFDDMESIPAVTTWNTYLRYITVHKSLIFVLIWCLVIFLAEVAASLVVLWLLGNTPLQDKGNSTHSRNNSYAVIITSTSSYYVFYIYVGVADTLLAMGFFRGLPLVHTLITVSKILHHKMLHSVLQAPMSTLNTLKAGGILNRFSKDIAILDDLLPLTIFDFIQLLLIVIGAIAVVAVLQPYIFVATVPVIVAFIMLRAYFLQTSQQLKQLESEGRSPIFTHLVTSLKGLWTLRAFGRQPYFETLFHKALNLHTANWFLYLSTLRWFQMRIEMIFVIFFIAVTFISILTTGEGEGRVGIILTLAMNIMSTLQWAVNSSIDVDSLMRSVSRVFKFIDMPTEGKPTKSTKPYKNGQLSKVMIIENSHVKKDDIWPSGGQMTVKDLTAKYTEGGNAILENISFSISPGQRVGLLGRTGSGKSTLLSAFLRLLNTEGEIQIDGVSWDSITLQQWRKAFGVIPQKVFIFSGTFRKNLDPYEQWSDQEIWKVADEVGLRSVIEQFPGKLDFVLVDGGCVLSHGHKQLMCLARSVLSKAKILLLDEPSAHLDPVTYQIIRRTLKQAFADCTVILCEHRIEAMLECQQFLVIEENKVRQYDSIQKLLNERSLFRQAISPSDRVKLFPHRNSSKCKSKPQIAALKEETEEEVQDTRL
Description: (§1) To confirm in cells the above-predicted binding site for ARN23765, we introduced the investigated single-site mutations into the F508del-CFTR coding sequence. The rescue of double mutant proteins (F508del + new mutation) by ARN23765 was assessed with WB analysis of protein maturation and evaluation of channel activity (FLIPR assay)[40] in transfected HEK293 cells. Since correctors 3151 (type II)[16] and VX-445 (type III)[18] have been reported to bind to different CFTR sites, we used these compounds as controls. As expected, ARN23765-induced maturation of F508del-CFTR was not affected by the N71I substitution. […] Indeed, the corrector was no longer able to promote protein maturation (Figure 9A and S8A). […] The results of protein maturation analysis were mostly confirmed by functional data (Figure 9B and S8B), in which the channel activity of double-mutated proteins was evaluated in terms of the change in cell membrane potential change (FLIPR assay).
(§2) HEK293 cells were plated in 24-wells at around 80% of confluence and transfected with constructs coding for F508del-CFTR or mutants using JetPEI reagent (101000053, Polyplus Technology) following the manufacturer’s instructions. After 24 h, the correctors were added for a further 24 h. Correctors were used at the following concentrations: ARN23765 (10 nM), VX-445 (3 μM), and 3151 (10 μM). For binding site analysis experiments, the cells were kept either at 37 °C (Figure S8) or moved to 30 °C (Figure 9) during incubation with the selected correctors. VX-445 and corrector 3151 were mixed together as a control for maximal protein correction. DMSO (0.2%) was added to nontreated controls. After treatment, cells were lysed in RIPA buffer [50 mM tris-HCl pH 8, 150 mM NaCl, 1% NP40, 0.5% sodium deoxycolate, 0.1% SDS, 2.0 mM EDTA] and lysates were analyzed with WB, as described in the supplementary methods of the Supporting Information. […]
(§3) Site-directed mutagenesis
(§4) Desired mutations were introduced using the QuikChange II XL site-directed mutagenesis kit (200522,
(§5) Agilent Technologies) according to the manufacturer’s instructions. F508del-CFTR pCDNA3.1 was used
(§6) as a template for the synthesis of mutated constructs K68I/F508del-CFTR, N71I/F508del-CFTR,
(§7) S364F/F508del-CFTR. The introduction of the mutation and the whole CFTR sequence were checked by
(§8) Sanger sequencing. Mutants R1070W/F508del-CFTR and R170G-
(§9) CFTR were produced as previously described.4

[2] = molecular target: T2, F508del-CFTR double mutants (K68I, N71I, R74A, F81A, A198Y, W361A, S364F) (Homo sapiens, UniProt P13569, DEL508-508/S364F); experiment: as above; format: cell-based; conditions: F508del/S364F-CFTR; HEK293, 10 nM, 24 h
T2 construct: CFTR identification in pull-down studies and analysis of full-length CFTR in protein maturation assays; expressed in transfected cells; host or cells: HEK293 (transient, pCDNA3.1 constructs, JetPEI)
T2 sequence (P13569 with tags, fused parts or gaps S364F/DEL508-508): as the sequence (P13569 with tags, fused parts or gaps F81A/DEL508-508) above, with A81F, S364F counted along it
Description: as §1, §2, §3, §4, §5, §6, §7, §8, §9

[3] = molecular target: T3, F508del-CFTR double mutants (K68I, N71I, R74A, F81A, A198Y, W361A, S364F) (Homo sapiens, UniProt P13569, DEL508-508/R74A); experiment: as above; format: cell-based; conditions: F508del/R74A-CFTR; HEK293, 10 nM, 24 h
T3 construct: CFTR identification in pull-down studies and analysis of full-length CFTR in protein maturation assays; expressed in transfected cells; host or cells: HEK293 (transient, pCDNA3.1 constructs, JetPEI)
T3 sequence (P13569 with tags, fused parts or gaps R74A/DEL508-508): as the sequence (P13569 with tags, fused parts or gaps F81A/DEL508-508) above, with R74A, A81F counted along it
Description: as §1, §2, §3, §4, §5, §6, §7, §8, §9

[4] = molecular target: T4, F508del-CFTR double mutants (K68I, N71I, R74A, F81A, A198Y, W361A, S364F) (Homo sapiens, UniProt P13569, DEL508-508/W361A); experiment: as above; format: cell-based; conditions: F508del/W361A-CFTR; HEK293, 10 nM, 24 h
T4 construct: CFTR identification in pull-down studies and analysis of full-length CFTR in protein maturation assays; expressed in transfected cells; host or cells: HEK293 (transient, pCDNA3.1 constructs, JetPEI)
T4 sequence (P13569 with tags, fused parts or gaps W361A/DEL508-508): as the sequence (P13569 with tags, fused parts or gaps F81A/DEL508-508) above, with A81F, W361A counted along it
Description: as §1, §2, §3, §4, §5, §6, §7, §8, §9

[5] = molecular target: T5, F508del-CFTR double mutants (K68I, N71I, R74A, F81A, A198Y, W361A, S364F) (Homo sapiens, UniProt P13569, A198Y/DEL508-508); experiment: as above; format: cell-based; conditions: F508del/A198Y-CFTR; HEK293, 10 nM, 24 h
T5 construct: CFTR identification in pull-down studies and analysis of full-length CFTR in protein maturation assays; expressed in transfected cells; host or cells: HEK293 (transient, pCDNA3.1 constructs, JetPEI)
T5 sequence (P13569 with tags, fused parts or gaps A198Y/DEL508-508): as the sequence (P13569 with tags, fused parts or gaps F81A/DEL508-508) above, with A81F, A198Y counted along it
Description: as §1, §2, §3, §4, §5, §6, §7, §8, §9

[6] = molecular target: T6, F508del-CFTR double mutants (K68I, N71I, R74A, F81A, A198Y, W361A, S364F) (Homo sapiens, UniProt P13569, DEL508-508/K68I); experiment: as above; format: cell-based; conditions: F508del/K68I-CFTR; HEK293, 10 nM, 24 h
T6 construct: CFTR identification in pull-down studies and analysis of full-length CFTR in protein maturation assays; expressed in transfected cells; host or cells: HEK293 (transient, pCDNA3.1 constructs, JetPEI)
T6 sequence (P13569 with tags, fused parts or gaps K68I/DEL508-508): as the sequence (P13569 with tags, fused parts or gaps F81A/DEL508-508) above, with K68I, A81F counted along it
Description: as §1, §2, §3, §4, §5, §6, §7, §8, §9

[7] = molecular target: T7, F508del-CFTR double mutants (K68I, N71I, R74A, F81A, A198Y, W361A, S364F) (Homo sapiens, UniProt P13569, DEL508-508/N71I); experiment: as above; format: cell-based; conditions: F508del/N71I-CFTR; HEK293, 10 nM, 24 h
T7 construct: CFTR identification in pull-down studies and analysis of full-length CFTR in protein maturation assays; expressed in transfected cells; host or cells: HEK293 (transient, pCDNA3.1 constructs, JetPEI)
T7 sequence (P13569 with tags, fused parts or gaps N71I/DEL508-508): as the sequence (P13569 with tags, fused parts or gaps F81A/DEL508-508) above, with N71I, A81F counted along it
Description: as §1, §2, §3, §4, §5, §6, §7, §8, §9

[8] = tested on: CFTR; design: method as in PMID 32128418; conditions: HS-YFP assay; cited from earlier work
[9] = molecular target: CFTR fragments containing MSD1 (Homo sapiens, UniProt P13569); experiment: CFTR fragment stability analysis (WB) in transfected HEK293 cells; format: cell-based; conditions: HEK293, 24 h incubation, 10 nM
Sequence of CFTR fragments containing MSD1 (P13569 1-380 limits assumed): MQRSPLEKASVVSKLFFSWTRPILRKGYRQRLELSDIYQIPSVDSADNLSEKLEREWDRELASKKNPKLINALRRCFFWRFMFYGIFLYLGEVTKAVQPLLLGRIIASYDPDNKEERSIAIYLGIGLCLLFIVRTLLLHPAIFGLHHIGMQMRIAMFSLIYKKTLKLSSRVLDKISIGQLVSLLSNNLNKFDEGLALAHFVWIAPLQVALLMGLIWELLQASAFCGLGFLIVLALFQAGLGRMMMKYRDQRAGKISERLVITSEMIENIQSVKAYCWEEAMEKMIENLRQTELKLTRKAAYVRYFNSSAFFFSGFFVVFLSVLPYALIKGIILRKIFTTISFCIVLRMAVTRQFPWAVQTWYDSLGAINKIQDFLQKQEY
Description: (§10) CFTR correctors are expected to stabilize the expression of the protein domains with which they interact, resulting in an increased amount of protein.[35]−[37] To determinate the portion of CFTR with which ARN23765 interacts, constructs coding for CFTR fragments of different lengths (Figure 3A) were transfected in HEK293 cells, and the effect of 24 h incubation with ARN23765 on the expression of the truncated proteins was analyzed with WB. […] To better study ARN23765’s stabilization of MSD1 vs MSD2, we analyzed their expression in transfected HEK-293 cells over 6 h of cycloheximide treatment.
(§11) Constructs coding for MSD1 (residues 1–380), A52-tagged MSD2 (residues 837–1196) and MSD2-NBD2 (residues 850–1480) were transfected in HEK293 cells using JetPEI reagent (101000053, Polyplus Technology). After 18 h transfection, cells were treated for 24 h with either 0.2% DMSO, VX-661 (3 μM), ARN23765 (10 nM) or corr-4a (10 μM). Cell lysates were analyzed by WB, as described in the dedicated paragraph.

[10] = molecular target: CFTR fragments containing MSD2 (Homo sapiens, UniProt P13569); experiment: as above; format: cell-based; conditions: HEK293, 24 h incubation, 10 nM
Sequence of CFTR fragments containing MSD2 (P13569 850-1196 limits assumed): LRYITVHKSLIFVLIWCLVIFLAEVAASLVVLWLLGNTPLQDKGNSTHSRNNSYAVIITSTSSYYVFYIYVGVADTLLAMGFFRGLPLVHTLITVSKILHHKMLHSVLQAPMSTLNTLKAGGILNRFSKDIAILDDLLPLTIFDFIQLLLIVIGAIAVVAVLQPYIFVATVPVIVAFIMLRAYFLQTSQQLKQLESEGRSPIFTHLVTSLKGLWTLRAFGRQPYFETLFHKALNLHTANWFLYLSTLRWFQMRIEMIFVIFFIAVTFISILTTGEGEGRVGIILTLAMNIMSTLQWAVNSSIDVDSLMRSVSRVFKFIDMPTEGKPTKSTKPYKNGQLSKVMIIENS
Description: as §10, §11

CN(C(=O)c1cccc(-n2nc(C(F)(F)F)c3c2[C@@H](Oc2ccc(C(=O)O)cc2)CCC3)c1)c1ccc2c(c1)OC(F)(F)O2 [ARN23765]
Effect of second mutation on corrector-induced maturation of F508del-CFTR [1]: markedly reduced or abolished
Effect of second mutation on corrector-induced maturation of F508del-CFTR [2]: only slightly reduced
Effect of second mutation on corrector-induced maturation of F508del-CFTR [3]: only slightly reduced
Effect of second mutation on corrector-induced maturation of F508del-CFTR [4]: markedly reduced or abolished
Effect of second mutation on corrector-induced maturation of F508del-CFTR [5]: markedly reduced or abolished
Effect of second mutation on corrector-induced rescue of F508del-CFTR [6]: no appreciable change
Effect of second mutation on corrector-induced maturation of F508del-CFTR [7]: not affected
Effect on the protein gating [8]: no effect
Correction of CFTR with R domain deleted (delR construct, WB) [9]: still corrected
Expression of CFTR fragments containing MSD1 (WB) [9]: increased expression
Expression of CFTR fragments containing MSD2 (WB) [10]: no difference in expression
